According to PubChem BioAssay AID248 (DTP/NCI, 2004):
Values joined by “and” are separate entries in the source; they are usually repeats but may differ in a detail not shown here. Equal values may be shown once. Toxic doses and inconclusive results are not listed. No stated cut-off is given here; in the data, active means T/C of 150% or more; inactive means T/C below 125%.

Test system: L1210 leukemia ip in BDF1 mice, survival T/C
Assay: NCI In Vivo Anticancer Drug Screen. Data for tumor model L1210 Leukemia (intraperitoneal) in B6D2F1 (BDF1) mice
Settings: endpoint: mean survival time, higher = longer survival
Outline: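 Mice bearing the transplanted tumor received compound or vehicle. Survival of the treated group was divided by that of the vehicle-treated control group to give the ratio.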

[1] = dose: 100.0 mg/kg/injection, schedule: Q04DX003 (ip), vehicle: saline with Tween-80
[2] = dose: 200.0 mg/kg/injection, schedule: Q04DX003 (ip), vehicle: saline with Tween-80
[3] = dose: 400.0 mg/kg/injection, schedule: Q04DX003 (ip), vehicle: saline with Tween-80
[4] = dose: 100.0 mg/kg/injection, schedule: Q01DX001 (ip), vehicle: other
[5] = dose: 200.0 mg/kg/injection, schedule: Q01DX001 (ip), vehicle: other
[6] = dose: 400.0 mg/kg/injection, schedule: Q01DX001 (ip), vehicle: other
[7] = dose: 100.0 mg/kg/injection, schedule: Q01DX009 (ip), vehicle: Klucel (hydroxypropylcellulose) (HPC)
[8] = dose: 100.0 mg/kg/injection, schedule: Q04DX003 (ip), vehicle: Klucel (hydroxypropylcellulose) (HPC)
[9] = dose: 200.0 mg/kg/injection, schedule: Q01DX009 (ip), vehicle: Klucel (hydroxypropylcellulose) (HPC)
[10] = dose: 200.0 mg/kg/injection, schedule: Q04DX003 (ip), vehicle: Klucel (hydroxypropylcellulose) (HPC)
[11] = dose: 400.0 mg/kg/injection, schedule: Q01DX009 (ip), vehicle: Klucel (hydroxypropylcellulose) (HPC)
[12] = dose: 400.0 mg/kg/injection, schedule: Q04DX003 (ip), vehicle: Klucel (hydroxypropylcellulose) (HPC)
[13] = dose: 100.0 mg/kg/injection, schedule: Q01DX001 (ip), vehicle: carboxymethylcellulose (CMC)
[14] = dose: 200.0 mg/kg/injection, schedule: Q01DX001 (ip), vehicle: carboxymethylcellulose (CMC)
[15] = dose: 100.0 mg/kg/injection, schedule: Q01DX001 (ip), vehicle: saline
[16] = dose: 200.0 mg/kg/injection, schedule: Q01DX001 (ip), vehicle: saline
[17] = dose: 400.0 mg/kg/injection, schedule: Q01DX001 (ip), vehicle: saline
[18] = dose: 200.0 mg/kg/injection, schedule: Q01DX009 (ip), vehicle: saline with Tween-80
[19] = dose: 75.0 mg/kg/injection, schedule: Q01DX001 (ip), vehicle: carboxymethylcellulose (CMC)
[20] = dose: 150.0 mg/kg/injection, schedule: Q01DX001 (ip), vehicle: carboxymethylcellulose (CMC)

Measured: T/C

O=C1C2C3CCC(O3)C2C(=O)N1N1C(=O)C2C3CCC(O3)C2C1=O (stereo unspecified)
inactive: dose: 100.0 mg/kg/injection, schedule: Q01DX009 (ip), vehicle: carboxymethylcellulose (CMC) 102 % of control | dose: 100.0 mg/kg/injection, schedule: Q04DX003 (ip), vehicle: carboxymethylcellulose (CMC) 110 % of control | dose: 200.0 mg/kg/injection, schedule: Q01DX009 (ip), vehicle: carboxymethylcellulose (CMC) 97 % of control | dose: 200.0 mg/kg/injection, schedule: Q04DX003 (ip), vehicle: carboxymethylcellulose (CMC) 111 % of control | dose: 400.0 mg/kg/injection, schedule: Q01DX009 (ip), vehicle: carboxymethylcellulose (CMC) 87 % of control | dose: 400.0 mg/kg/injection, schedule: Q04DX003 (ip), vehicle: carboxymethylcellulose (CMC) 101 % of control

N#CSCC(=O)OC1CCCCC1
inactive: dose: 5.0 mg/kg/injection, schedule: Q01DX001 (ip), vehicle: saline 98 % of control | dose: 10.0 mg/kg/injection, schedule: Q01DX001 (ip), vehicle: saline 96 % of control | dose: 20.0 mg/kg/injection, schedule: Q01DX001 (ip), vehicle: saline 96 % of control | dose: 40.0 mg/kg/injection, schedule: Q01DX001 (ip), vehicle: saline 93 % of control

NC(=O)C1=C(N)CCC1
inactive: [1] 100 % of control | [2] 95 % of control | [3] 97 % of control

O=C(CCCCC(=O)c1ccc(O)cc1O)c1ccc(O)cc1O
inactive: [4] 97 % of control | dose: 100.0 mg/kg/injection, schedule: Q04DX003 (ip), vehicle: other 103 % of control | [5] 95 % of control | dose: 200.0 mg/kg/injection, schedule: Q04DX003 (ip), vehicle: other 100 % of control | [6] 97 % of control | dose: 400.0 mg/kg/injection, schedule: Q04DX003 (ip), vehicle: other 106 % of control

CC(C)CCC(=O)OC1CCC2(C)C(=CCC3C2CCC2(C)C(O)CCC32)C1 (stereo unspecified)
inactive: dose: 100.0 mg/kg/injection, schedule: Q01DX001 (ip), vehicle: saline with Tween-80 92 % of control | dose: 200.0 mg/kg/injection, schedule: Q01DX001 (ip), vehicle: saline with Tween-80 93 % of control | dose: 400.0 mg/kg/injection, schedule: Q01DX001 (ip), vehicle: saline with Tween-80 101 % of control

C#CCOC(=O)Nc1cccc(Cl)c1
inactive: [7] 95 % of control | [8] 97 % of control | [9] 97 % of control | [10] 106 % of control | [11] 95 % of control | [12] 90 % of control

CCC1([N+](=O)[O-])COP(=O)(NCc2ccncc2)OC1 (stereo unspecified)
inactive: [13] 98 % of control | [14] 98 % of control | dose: 400.0 mg/kg/injection, schedule: Q01DX001 (ip), vehicle: carboxymethylcellulose (CMC) 96 % of control

O=C(c1ccc(O)cc1O)c1cccc2ccccc12
inactive: [7] 95 % of control | [8] 93 % of control | [9] 97 % of control | [10] 95 % of control | [11] 99 % of control | [12] 93 % of control

Brc1ccc(C2CCCCC2)cc1
inactive: [1] 97 % of control | [2] 93 % of control | [3] 101 % of control

O=C1OC(Cl)(C(Cl)(Cl)Cl)C(=O)OC1(Cl)C(Cl)(Cl)Cl (stereo unspecified)
inactive: dose: 100.0 mg/kg/injection, schedule: Q04DX003 (ip), vehicle: acetone 98 % of control | dose: 200.0 mg/kg/injection, schedule: Q04DX003 (ip), vehicle: acetone 98 % of control | dose: 400.0 mg/kg/injection, schedule: Q04DX003 (ip), vehicle: acetone 96 % of control

Brc1csnn1
inactive: dose: 50.0 mg/kg/injection, schedule: Q01DX001 (ip), vehicle: carboxymethylcellulose (CMC) 98 % of control | [13] 110 % of control | [14] 95 % of control

O=[N+]([O-])c1ccc(N/N=C/C23CC4CC(CC(C4)C2)C3)c([N+](=O)[O-])c1
inactive: dose: 3.12 mg/kg/injection, schedule: Q04DX002 (ip), vehicle: Klucel (hydroxypropylcellulose) (HPC) 121 % of control | dose: 6.25 mg/kg/injection, schedule: Q04DX002 (ip), vehicle: Klucel (hydroxypropylcellulose) (HPC) 110 % of control | dose: 12.5 mg/kg/injection, schedule: Q04DX002 (ip), vehicle: Klucel (hydroxypropylcellulose) (HPC) 113 % of control | dose: 25.0 mg/kg/injection, schedule: Q04DX002 (ip), vehicle: Klucel (hydroxypropylcellulose) (HPC) 94 % of control | dose: 100.0 mg/kg/injection, schedule: Q01DX001 (ip), vehicle: Klucel (hydroxypropylcellulose) (HPC) 98 % of control

NC(c1ccccc1)(c1ccccc1)c1ccccc1
inactive: [15] 101 % of control | [16] 101 % of control | [17] 101 % of control

Cc1ccc(NC(=O)NCCCCCCNC(=O)Nc2ccc(C)c(Cl)c2)cc1Cl
inactive: [1] 93 % of control | [18] 89 % of control | [2] 92 % of control | [3] 95 % of control

FC(F)(F)c1cccc(-n2nncc2-c2ccccc2)c1
inactive: dose: 100.0 mg/kg/injection, schedule: Q04DX002 (ip), vehicle: Klucel (hydroxypropylcellulose) (HPC) 97 % of control | dose: 200.0 mg/kg/injection, schedule: Q04DX002 (ip), vehicle: Klucel (hydroxypropylcellulose) (HPC) 101 % of control | dose: 400.0 mg/kg/injection, schedule: Q04DX002 (ip), vehicle: Klucel (hydroxypropylcellulose) (HPC) 97 % of control

COc1ccc2c3c1OC1C4(OC)CCC5(c6c(O)ccc(O)c64)C(C2)N(C)CCC315 (stereo unspecified)
inactive: [15] 86 % of control | [16] 96 % of control | [17] 94 % of control

CCOC(=O)Nc1cc(Cl)cc(NC(=O)OCC)n1
inactive: [4] 94 % of control | dose: 100.0 mg/kg/injection, schedule: Q01DX009 (ip), vehicle: saline with Tween-80 96 % of control | [1] 107 % of control | [5] 102 % of control | [18] 106 % of control | [2] 100 % of control | [6] 96 % of control | dose: 400.0 mg/kg/injection, schedule: Q01DX009 (ip), vehicle: saline with Tween-80 96 % of control | [3] 108 % of control

Oc1cc(CN2CCCC2)c(O)cc1CN1CCCC1
inactive: [19] 111 % of control | [20] 105 % of control

CCCCCCCCC(C(=O)c1ccccc1)=C(C(F)(F)F)C(F)(F)F
inactive: dose: 25.0 mg/kg/injection, schedule: Q01DX009 (ip), vehicle: saline 100 % of control | dose: 50.0 mg/kg/injection, schedule: Q01DX009 (ip), vehicle: saline 96 % of control | dose: 100.0 mg/kg/injection, schedule: Q01DX009 (ip), vehicle: saline 91 % of control | [1] 86 % of control | [2] 90 % of control | [3] 95 % of control

ClCC1(CCl)OCCO1
inactive: [19] 95 % of control | [20] 104 % of control

CC1=CCCC2(CCC3(C)CC32)C1(C)C (stereo unspecified)
inactive: dose: 100.0 mg/kg/injection, schedule: Q01DX009 (ip), vehicle: acetone 89 % of control | dose: 200.0 mg/kg/injection, schedule: Q01DX009 (ip), vehicle: acetone 95 % of control

CN(C)C(=O)C(c1ccccc1)[P+](C)(c1ccccc1)c1ccccc1 (stereo unspecified)
inactive: dose: 75.0 mg/kg/injection, schedule: Q01DX001 (ip), vehicle: other 95 % of control

CC(N)(COC(=O)c1ccccc1)C(=O)O (stereo unspecified)
inactive: dose: 100.0 mg/kg/injection, schedule: Q04DX003 (ip), vehicle: saline 107 % of control | dose: 200.0 mg/kg/injection, schedule: Q04DX003 (ip), vehicle: saline 96 % of control | dose: 400.0 mg/kg/injection, schedule: Q04DX003 (ip), vehicle: saline 98 % of control

C/C=C(\C)C(=O)Nc1ccc(Cl)c(Cl)c1
inactive: dose: 222.0 mg/kg/injection, schedule: Q01DX Z (ip), vehicle: methylcellulose (MC) 93 % of control | dose: 333.0 mg/kg/injection, schedule: Q01DX Z (ip), vehicle: methylcellulose (MC) 90 % of control | dose: 500.0 mg/kg/injection, schedule: Q01DX Z (ip), vehicle: methylcellulose (MC) 98 % of control

COC(=O)C1CC(C)(C)N(C)C1(C)C (stereo unspecified)
inactive: [7] 101 % of control | [8] 100 % of control | [9] 106 % of control and 92 % of control | [10] 103 % of control
